Structures are written as SMILES. A value given as a limit tells only on which side of the number the result lay.

The first assay addresses BRD4 (Homo sapiens, UniProt O60885). As to the kind of experiment: Time Resolved Fluorescence Resonance Energy Transfer (TR-FRET) binding assay, BRD4. Particulars: FRET BRD4 IC50 (nM), one of the FRET assays described.
Usually IC50 stands for the midpoint of a concentration-inhibition curve. On to `Cn1nnc(Br)c1-c1cnc2c3ccc(C(C)(C)O)cc3n([C@H](c3ccccc3)C3CCOCC3)c2c1` [Example 384, 2-[3-(4-Bromo-1-methyl-1H-1,2,3-triazol-5-yl)-5-[(S)-oxan-4-yl(phenyl)methyl]-5H-pyrido[3,2-b]indol-7-yl]propan-2-ol], for which the half-maximal inhibitory concentration (IC50) is under 5 nM.

Molecule `Cn1nnc(Cl)c1-c1cnc2c3ccc(C(C)(C)O)cc3n([C@H](c3ccccc3)C3CCOCC3)c2c1` [Example 387, 2-[3-(4-Chloro-1-methyl-1H-1,2,3-triazol-5-yl)-5-[(S)-oxan-4-yl(phenyl)methyl]-5H-pyrido[3,2-b]indol-7-yl]propan-2-ol] came in with a half-maximal inhibitory concentration (IC50) of under 5 nM.

Still in this assay, the particulars now being: one of the FRET assays described; read-out: FRET BRD4 IC50.
With `[2H]C([2H])([2H])c1nnn(C)c1-c1cnc2c3c(OC)cc(C(C)(C)O)cc3n(C(c3ccncc3F)C3CCOCC3)c2c1` (centres unmarked) [Example 348, 2-{5-[(3-Fluoropyridin-4-yl)(oxan-4-yl)methyl]-9-methoxy-3-[4-(^2H3)methyl-1-methyl-1H-1,2,3-triazol-5-yl]-5H-pyrido[3,2-b]indol-7-yl}propan-2-ol], the IC50 was under 5 nM. Turning to `Cc1nnn(C)c1-c1cnc2c3ccc(C(C)(C)F)cc3n([C@H](c3ccccc3)C3CCOCC3)c2c1` [Example 351, 5-[7-(2-Fluoropropan-2-yl)-5-[(S)-oxan-4-yl(phenyl)methyl]-5H-pyrido[3,2-b]indol-3-yl]-1,4-dimethyl-1H-1,2,3-triazole], the IC50 was under 5 nM.

In the case of `Cc1nnn(C)c1-c1cnc2c3ccc(C(C)(C)F)c(F)c3n([C@H](c3ccccc3)C3CCOCC3)c2c1` [Example 352, 5-[6-Fluoro-7-(2-fluoropropan-2-yl)-5-[(S)-oxan-4-yl(phenyl)methyl]-5H-pyrido[3,2-b]indol-3-yl]-1,4-dimethyl-1H-1,2,3-triazole], the IC50 was under 25 nM. Take `COc1cc2c3ncc(-c4c(C)nnn4C)cc3n([C@H](c3ccc(F)cc3)C3CCOCC3)c2cc1C(C)(C)O` [Example 353, 2-[3-(Dimethyl-1H-1,2,3-triazol-5-yl)-5-[(S)-(4-fluorophenyl)(oxan-4-yl)methyl]-8-methoxy-5H-pyrido[3,2-b]indol-7-yl]propan-2-ol]: the IC50 was under 5 nM. Turning to `COc1cc2c3ncc(-c4c(C)nnn4C)cc3n([C@H](c3ccccc3)C3CCOCC3)c2cc1C(C)(C)O` [Example 354, 2-[3-(Dimethyl-1H-1,2,3-triazol-5-yl)-8-methoxy-5-[(S)-oxan-4-yl(phenyl)methyl]-5H-pyrido[3,2-b]indol-7-yl]propan-2-ol], the IC50 is under 5 nM. Turning to `COc1c(C(C)(C)O)ccc2c3ncc(-c4c(C)nnn4C)cc3n([C@H](c3ccccc3)C3CCOCC3)c12` [Example 355, 2-[3-(Dimethyl-1H-1,2,3-triazol-5-yl)-6-methoxy-5-[(S)-oxan-4-yl(phenyl)methyl]-5H-pyrido[3,2-b]indol-7-yl]propan-2-ol], the IC50 was under 5 nM. `C=C(C)c1ccc2c3ncc(-c4c(C)nnn4C)cc3n([C@H](c3ccccc3)C3CCOCC3)c2c1CO` [Example 356, [3-(Dimethyl-1H-1,2,3-triazol-5-yl)-5-[(S)-oxan-4-yl(phenyl)methyl]-7-(prop-1-en-2-yl)-5H-pyrido[3,2-b]indol-6-yl]methanol]: the IC50 is under 5 nM.

Regarding `Cc1nnn(C)c1-c1cnc2c3ccc(NC(=O)OCCC(F)(F)F)cc3n([C@H](c3ccccc3)C3CCOCC3)c2c1` [Example 364, 3,3,3-Trifluoropropyl N-[3-(dimethyl-1H-1,2,3-triazol-5-yl)-5-[(S)-oxan-4-yl(phenyl)methyl]-5H-pyrido[3,2-b]indol-7-yl]carbamate], the IC50 is under 5 nM. In the case of `COC(=O)Nc1ccc2c3ncc(-c4c(C)nnn4C)cc3n([C@H](c3ccccc3)C3CCOCC3)c2c1` [Example 365, Methyl N-[3-(dimethyl-1H-1,2,3-triazol-5-yl)-5-[(S)-oxan-4-yl(phenyl)methyl]-5H-pyrido[3,2-b]indol-7-yl]carbamate], the IC50 is under 5 nM. For the molecule `CCOC(=O)Nc1ccc2c3ncc(-c4c(C)nnn4C)cc3n([C@H](c3ccccc3)C3CCOCC3)c2c1` [Example 366, Ethyl N-[3-(dimethyl-1H-1,2,3-triazol-5-yl)-5-[(S)-oxan-4-yl(phenyl)methyl]-5H-pyrido[3,2-b]indol-7-yl]carbamate], the IC50 was under 5 nM. Regarding `Cc1nnn(C)c1-c1cnc2c3ccc(NC(=O)OC(C)C)cc3n([C@H](c3ccccc3)C3CCOCC3)c2c1` [Example 367, Propan-2-yl N-[3-(dimethyl-1H-1,2,3-triazol-5-yl)-5-[(S)-oxan-4-yl(phenyl)methyl]-5H-pyrido[3,2-b]indol-7-yl]carbamate], the IC50 is under 5 nM.

As to `Cc1nnn(C)c1-c1cnc2c3c(F)cc(C(C)(C)O)cc3n([C@H](c3ccccc3)C3CCOCC3)c2c1` [Example 369, 2-[3-(Dimethyl-1H-1,2,3-triazol-5-yl)-9-fluoro-5-[(S)-oxan-4-yl(phenyl)methyl]-5H-pyrido[3,2-b]indol-7-yl]propan-2-ol], the IC50 was under 5 nM. Take `Cc1noc(C)c1-c1cnc2c3c(F)cc(C(C)(C)O)cc3n([C@H](c3ccccc3)C3CCOCC3)c2c1` [Example 370, 2-[3-(Dimethyl-1,2-oxazol-4-yl)-9-fluoro-5-[(S)-oxan-4-yl(phenyl)methyl]-5H-pyrido[3,2-b]indol-7-yl]propan-2-ol]: the IC50 was under 5 nM.

Turning to `Cc1nnn(C)c1-c1cnc2c3cc(S(C)(=O)=O)ccc3n([C@H](c3ccccc3)C3CCOCC3)c2c1` [Example 375, 5-{8-Methanesulfonyl-5-[(S)-oxan-4-yl(phenyl)methyl]-5H-pyrido[3,2-b]indol-3-yl}-1,4-dimethyl-1H-1,2,3-triazole], the IC50 is under 5 nM. On the same count and under the same terms, in the case of `Cc1nnn(C)c1-c1cnc2c3cccc(S(C)(=O)=O)c3n([C@H](c3ccccc3)C3CCOCC3)c2c1` [Example 376, 5-{6-Methanesulfonyl-5-[(S)-oxan-4-yl(phenyl)methyl]-5H-pyrido[3,2-b]indol-3-yl}-1,4-dimethyl-1H-1,2,3-triazole] it was under 5 nM; in that of `Cc1nnn(C)c1-c1cnc2c3cccc(S(C)(=O)=O)c3n([C@@H](CCC(F)(F)F)c3ccccc3)c2c1` [Example 377, 5-{6-Methanesulfonyl-5-[(1S)-4,4,4-trifluoro-1-phenylbutyl]-5H-pyrido[3,2-b]indol-3-yl}-1,4-dimethyl-1H-1,2,3-triazole], under 5 nM. On to `[2H]C([2H])([2H])Oc1nnn(C)c1-c1cnc2c3ccc(C(C)(C)O)cc3n([C@H](c3ccccc3)C3CCOCC3)c2c1` [Example 378, 2-{3-[4-(^2H3)Methoxy-1-methyl-1H-1,2,3-triazol-5-yl]-5-[(S)-oxan-4-yl(phenyl)methyl]-5H-pyrido[3,2-b]indol-7-yl}propan-2-ol], for which the IC50 was under 5 nM. With `COc1nnn(C)c1-c1cnc2c3ccc(C(C)(C)O)cc3n([C@H](c3ccccc3)C3CCOCC3)c2c1` [Example 379, 2-[3-(4-Methoxy-1-Methyl-1H-1,2,3-triazol-5-yl)-5-[(S)-oxan-4-yl(phenyl)methyl]-5H-pyrido[3,2-b]indol-7-yl]propan-2-ol], the IC50 is under 5 nM.

Consider `[2H]C([2H])([2H])Oc1nnn(C([2H])([2H])[2H])c1-c1cnc2c3ccc(C(C)(C)O)cc3n([C@H](c3ccccc3)C3CCOCC3)c2c1` [Example 380, 2-{3-[4-(^2H3)Methoxy-1-(^2H3)methyl-1H-1,2,3-triazol-5-yl]-5-[(S)-oxan-4-yl(phenyl)methyl]-5H-pyrido[3,2-b]indol-7-yl}propan-2-ol], for which the IC50 is under 5 nM. Consider `[2H]C([2H])([2H])n1nnc(OC)c1-c1cnc2c3ccc(C(C)(C)O)cc3n([C@H](c3ccccc3)C3CCOCC3)c2c1` [Example 381, 2-{3-[4-Methoxy-1-(^2H3)methyl-1H-1,2,3-triazol-5-yl]-5-[(S)-oxan-4-yl(phenyl)methyl]-5H-pyrido[3,2-b]indol-7-yl}propan-2-ol], for which the IC50 was under 5 nM. Take `CCOc1nnn(C)c1-c1cnc2c3ccc(C(C)(C)O)cc3n([C@H](c3ccccc3)C3CCOCC3)c2c1` [Example 382, 2-[3-(4-Ethoxy-1-methyl-1H-1,2,3-triazol-5-yl)-5-[(S)-oxan-4-yl(phenyl)methyl]-5H-pyrido[3,2-b]indol-7-yl]propan-2-ol]: the IC50 was under 5 nM. Consider `Cn1nnc(Br)c1-c1cnc2c3cc(Br)c(C(C)(C)O)cc3n([C@H](c3ccccc3)C3CCOCC3)c2c1` [Example 383, 2-[8-Bromo-3-(4-bromo-1-methyl-1H-1,2,3-triazol-5-yl)-5-[(S)-oxan-4-yl(phenyl)methyl]-5H-pyrido[3,2-b]indol-7-yl]propan-2-ol], for which the 50% inhibitory concentration (IC50) was under 5 nM. `Cn1nnc(C2CC2)c1-c1cnc2c3ccc(C(C)(C)O)cc3n([C@H](c3ccccc3)C3CCOCC3)c2c1` [Example 385, 2-[3-(4-Cyclopropyl-1-methyl-1H-1,2,3-triazol-5-yl)-5-[(S)-oxan-4-yl(phenyl)methyl]-5H-pyrido[3,2-b]indol-7-yl]propan-2-ol]: the IC50 is under 5 nM. Turning to `Cn1nnc(Cl)c1-c1cnc2c3cc(Cl)c(C(C)(C)O)cc3n([C@H](c3ccccc3)C3CCOCC3)c2c1` [Example 386, 2-[8-Chloro-3-(4-chloro-1-methyl-1H-1,2,3-triazol-5-yl)-5-[(S)-oxan-4-yl(phenyl)methyl]-5H-pyrido[3,2-b]indol-7-yl]propan-2-ol], the IC50 was under 5 nM. Take `CCc1nnn(C)c1-c1cnc2c3ccc(C(C)(C)O)cc3n([C@H](c3ccccc3)C3CCOCC3)c2c1` [Example 388, 2-[3-(4-Ethyl-1-methyl-1H-1,2,3-triazol-5-yl)-5-[(S)-oxan-4-yl(phenyl)methyl]-5H-pyrido[3,2-b]indol-7-yl]propan-2-ol]: the IC50 was under 5 nM. Take `Cn1nnc(N)c1-c1cnc2c3ccc(C(C)(C)O)cc3n([C@H](c3ccccc3)C3CCOCC3)c2c1` [Example 389, 2-[3-(4-Amino-1-methyl-1H-1,2,3-triazol-5-yl)-5-[(S)-oxan-4-yl(phenyl)methyl]-5H-pyrido[3,2-b]indol-7-yl]propan-2-ol]: the IC50 was under 5 nM. In the case of `CNc1nnn(C)c1-c1cnc2c3ccc(C(C)(C)O)cc3n([C@H](c3ccccc3)C3CCOCC3)c2c1` [Example 390, 2-{3-[1-Methyl-4-(methylamino)-1H-1,2,3-triazol-5-yl]-5-[(S)-oxan-4-yl(phenyl)methyl]-5H-pyrido[3,2-b]indol-7-yl}propan-2-ol], the IC50 was under 5 nM.

Source of the values: patent US10112941B2, “Tricyclic compounds as anticancer agents” (BRISTOL-MYERS SQUIBB COMPANY, priority 2013, dated 2018).
